Each structure is given as a SMILES string.

The term IC50 denotes the midpoint of a concentration-inhibition curve.

The target of the assay is plasminogen activator inhibitor 1 (PAI-1) (Homo sapiens, UniProt P05121). Put plainly: Bioassay for PAI-1 inhibitors (tPA amidolysis of chromogenic substrate in presence of PAI-1). To be noted: inhibition of PAI-1 measured via tPA activity; 4.5 nM PAI-1, 7.5 nM tPA, 1 mM substrate H-D-Ile-Pro-Arg-pNA, TRIS buffer pH 8.4, OD 405 nm, 37° C. 60 minutes. It is filed as biochemical. The method, then: For the detection of the inhibitors of PAI-1, a test is run in which the activation of a specific substrate by tPA is measured in the presence of a defined amount of PAI-1 and the substance in each case to be investigated. tPA is inhibited by PAI-1. An inhibition of PAI-1 results in an increased tPA activity. The enzymatic activity of tPA is measured colorimetrically by employing a chromogenic substrate which becomes colored after amidolysis.
plasminogen activator inhibitor 1 (PAI-1), sequence (P05121 24-402): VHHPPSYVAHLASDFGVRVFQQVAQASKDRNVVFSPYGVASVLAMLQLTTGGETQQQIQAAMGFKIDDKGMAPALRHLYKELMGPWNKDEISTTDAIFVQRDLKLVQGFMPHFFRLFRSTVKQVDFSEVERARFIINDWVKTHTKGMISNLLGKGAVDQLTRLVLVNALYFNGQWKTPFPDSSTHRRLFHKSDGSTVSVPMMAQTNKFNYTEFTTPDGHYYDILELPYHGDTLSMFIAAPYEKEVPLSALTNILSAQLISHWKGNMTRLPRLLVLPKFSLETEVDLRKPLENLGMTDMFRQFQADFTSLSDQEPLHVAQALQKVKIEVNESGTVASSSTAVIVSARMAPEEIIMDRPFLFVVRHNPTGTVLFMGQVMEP
Reaction: The inhibition of the enzymatic activity of tPA by PAI-1 is measured by means of the amidolysis of the chromogenic substrate H-D-IIe-Pro-Arg-pNA (Chromogenix; pNA=para-nitroaniline) as the optical density (OD) at a wavelength of 405 nm.
Extracts or pure substances, for example of the spirobenzofuran lactam derivatives prepared or characterized in examples 4–10, which are present dissolved in DMSO, were diluted in a suitable manner using TRIS buffer pH 8.4.
5 μl of test substance and 5 μl of PAI-1 are preincubated at room temperature for 30 minutes. 10 μl of tPA solution and 20 μl of substrate solution are then added.
The final concentrations in the sample are 50 μM test substance, 4.5 nM PAI-1, 7.5 nM tPA and 1 mM substrate in TRIS buffer pH 8.4. Immediately after the addition of the substrate, the initial absorption is measured at 405 nm. After incubation at 37° C. for 60 minutes, the absorption is measured again.
In each case, blank samples (buffer instead of tPA), positive controls=B (buffer instead of test substances) and tPA controls=A (buffer instead of PAI-1) are co-tested.
After correction by means of the blank samples, the inhibition is determined according to the following equation: […]
The results of the assay are shown as IC50 values in Table 1.
Regarding `CC1CCC2C(C)(C)C(O)CCC2(C)C12Cc1c(O)cc3c(c1O2)CN(C(Cc1ccccc1)C(=O)O)C3=O` (stereo not drawn) [Compound of the formula (II)], the IC50 was determined as 41 µM.

Take `CCC(C)C(C(=O)O)N1Cc2c(cc(O)c3c2OC2(C3)C(C)CCC3C(C)(C)C(O)CCC32C)C1=O` (stereo not drawn) [Compound of the formula (III)]: the IC50 stood at 66 µM.

In the case of `CC(C)CC(C(=O)O)N1Cc2c(cc(O)c3c2OC2(C3)C(C)CCC3C(C)(C)C(O)CCC32C)C1=O` (stereo not drawn) [Compound of the formula (IV)], the IC50 is 35 µM.

Source of the values: US7160917B2, “Spirobenzofuran lactams and their derivatives, processes for their preparation and use thereof” (Sanofi-Aventis Deutschland GmbH, priority 2002, dated 2007).
